Source: article PMC5218480 (PLoS ONE, 2017)

Test system: MV-4-11 cells
Test: Gene expression microarray analysis (Affymetrix PrimeView) and GSEA
Assay type: cell-based, human
Design: RFU PODN (11730768_x_at) / Fold change /veh PODN (11730768_x_at) / RFU LINC00158 (11744669_a_at) / Fold change /veh LINC00158 (11744669_a_at) / RFU DUSP10 (11751237_a_at) / Fold change /veh DUSP10 (11751237_a_at) / RFU ID3 (11757404_x_at) / Fold change /veh ID3 (11757404_x_at) / RFU PLEKHG5 (11737974_s_at) / Fold change /veh PLEKHG5 (11737974_s_at) / RFU LRRC4B (11730491_at) / Fold change /veh LRRC4B (11730491_at) / RFU GIMAP4 (11747438_a_at) / Fold change /veh GIMAP4 (11747438_a_at) / RFU KRT8 (11758183_x_at) / Fold change /veh KRT8 (11758183_x_at) / RFU CNN1 (11734310_a_at) / Fold change /veh CNN1 (11734310_a_at) / RFU VPS37D (11726825_at) / Fold change /veh VPS37D (11726825_at) / RFU C10orf10 (11716522_x_at) / Fold change /veh C10orf10 (11716522_x_at) / RFU KIR2DL2 /// KIR2DL4 /// KIR2DL5A /// KIR2DL5B /// KIR2DS1 /// KIR2DS2 /// KIR2DS3 /// KIR2DS4 /// KIR3DL3 /// KIR3DL3 /// KIR3DS1 (11738374_at) / Fold change /veh KIR2DL2 /// KIR2DL4 /// KIR2DL5A /// KIR2DL5B /// KIR2DS1 /// KIR2DS2 /// KIR2DS3 /// KIR2DS4 /// KIR3DL3 /// KIR3DL3 /// KIR3DS1 (11738374_at) / RFU C1QL1 (11718748_at) / Fold change /veh C1QL1 (11718748_at) / RFU TMPRSS4 (11747572_a_at) / Fold change /veh TMPRSS4 (11747572_a_at) / RFU HAMP (11756126_x_at) / Fold change /veh HAMP (11756126_x_at) / RFU RNFT2 (11725882_a_at) / Fold change /veh RNFT2 (11725882_a_at) / RFU NR4A2 (11747474_a_at) / Fold change /veh NR4A2 (11747474_a_at) / RFU ABCC12 (11746883_a_at) / Fold change /veh ABCC12 (11746883_a_at) / RFU TMEM136 (11760407_x_at) / Fold change /veh TMEM136 (11760407_x_at) / RFU CLDN22 /// WWC2 (11732394_at) / Fold change /veh CLDN22 /// WWC2 (11732394_at) / RFU HLA-DPB1 (11760878_x_at) / Fold change /veh HLA-DPB1 (11760878_x_at) / RFU SPINT1 (11716480_a_at) / Fold change /veh SPINT1 (11716480_a_at) / RFU GAP43 (11754022_s_at) / Fold change /veh GAP43 (11754022_s_at) / RFU A4GNT (11735810_at) / Fold change /veh A4GNT (11735810_at) / RFU PRB3 (11715151_x_at) / Fold change /veh PRB3 (11715151_x_at) / RFU TUBB4B (11761932_at) / Fold change /veh TUBB4B (11761932_at) / RFU CAPN14 (11732068_a_at) / Fold change /veh CAPN14 (11732068_a_at) / RFU TMCC2 (11721928_a_at) / Fold change /veh TMCC2 (11721928_a_at) / RFU IRGQ (11745062_a_at) / Fold change /veh IRGQ (11745062_a_at) / RFU FAM174B (11720279_a_at) / Fold change /veh FAM174B (11720279_a_at) / RFU TMPRSS4 (11748680_a_at) / Fold change /veh TMPRSS4 (11748680_a_at) / RFU FAM212B (11763350_a_at) / Fold change /veh FAM212B (11763350_a_at) / RFU PLEKHG5 (11743358_a_at) / Fold change /veh PLEKHG5 (11743358_a_at) / RFU ZSCAN30 (11745921_a_at) / Fold change /veh ZSCAN30 (11745921_a_at) / RFU CMKLR1 (11741424_a_at) / Fold change /veh CMKLR1 (11741424_a_at) / RFU LOC101060620 /// MAPK8IP1 (11723275_at) / Fold change /veh LOC101060620 /// MAPK8IP1 (11723275_at) / RFU SPTSSB (11747773_x_at) / Fold change /veh SPTSSB (11747773_x_at) / RFU PRSS12 (11739890_at) / Fold change /veh PRSS12 (11739890_at) / RFU BIN1 (11741810_x_at) / Fold change /veh BIN1 (11741810_x_at) / RFU WNT11 (11732464_a_at) / Fold change /veh WNT11 (11732464_a_at) / RFU C10orf10 (11716521_a_at) / Fold change /veh C10orf10 (11716521_a_at) / RFU C5orf56 (11738089_at) / Fold change /veh C5orf56 (11738089_at) / RFU CYB561 (11721691_x_at) / Fold change /veh CYB561 (11721691_x_at) / RFU ANKRD19P (11752326_a_at) / Fold change /veh ANKRD19P (11752326_a_at) / RFU OR2T12 /// OR2T33 /// OR2T8 (11738714_s_at) / Fold change /veh OR2T12 /// OR2T33 /// OR2T8 (11738714_s_at) / RFU VCAN (11748164_a_at) / Fold change /veh VCAN (11748164_a_at) / RFU JSRP1 (11732532_at) / Fold change /veh JSRP1 (11732532_at) / RFU KRTAP10-11 (11738290_x_at) / Fold change /veh KRTAP10-11 (11738290_x_at) / RFU MYO3A (11730013_a_at) / Fold change /veh MYO3A (11730013_a_at) / RFU EBF3 (11725865_a_at) / Fold change /veh EBF3 (11725865_a_at) / RFU CAMK2N1 (11719241_x_at) / Fold change /veh CAMK2N1 (11719241_x_at) / RFU C5orf56 (11738088_a_at) / Fold change /veh C5orf56 (11738088_a_at) / RFU OLFML3 (11715873_a_at) / Fold change /veh OLFML3 (11715873_a_at) / RFU LOC100653217 /// NTM (11731650_a_at) / Fold change /veh LOC100653217 /// NTM (11731650_a_at) / RFU MAPK11 (11762145_a_at) / Fold change /veh MAPK11 (11762145_a_at) / RFU FIZ1 (11724087_x_at) / Fold change /veh FIZ1 (11724087_x_at) / RFU OASL (11726364_x_at) / Fold change /veh OASL (11726364_x_at) / RFU SOX15 (11748057_x_at) / Fold change /veh SOX15 (11748057_x_at) / RFU CD79A (11719716_a_at) / Fold change /veh CD79A (11719716_a_at) / RFU HIST1H1D (11736915_at) / Fold change /veh HIST1H1D (11736915_at) / RFU CASKIN2 (11723855_a_at) / Fold change /veh CASKIN2 (11723855_a_at) / RFU LOC730098 (11760151_x_at) / Fold change /veh LOC730098 (11760151_x_at) / RFU OR4N2 (11742367_at) / Fold change /veh OR4N2 (11742367_at) / RFU PRRT2 (11749266_a_at) / Fold change /veh PRRT2 (11749266_a_at) / RFU SNX32 (11753110_a_at) / Fold change /veh SNX32 (11753110_a_at) / RFU CDHR5 (11726645_a_at) / Fold change /veh CDHR5 (11726645_a_at) / RFU RCAN1 (11760418_a_at) / Fold change /veh RCAN1 (11760418_a_at) / RFU FAM167A (11723789_a_at) / Fold change /veh FAM167A (11723789_a_at) / RFU FAM26E (11764081_at) / Fold change /veh FAM26E (11764081_at) / RFU ISYNA1 (11749810_s_at) / Fold change /veh ISYNA1 (11749810_s_at) / RFU ACY1 (11761880_at) / Fold change /veh ACY1 (11761880_at) / RFU 11764098_at / Fold change /veh 11764098_at / RFU SAMD14 (11745864_x_at) / Fold change /veh SAMD14 (11745864_x_at) / RFU NPB (11741838_a_at) / Fold change /veh NPB (11741838_a_at) / RFU TMPRSS6 (11731388_a_at) / Fold change /veh TMPRSS6 (11731388_a_at) / RFU KRTAP10-2 (11738614_at) / Fold change /veh KRTAP10-2 (11738614_at) / RFU ARHGAP8 /// PRR5-ARHGAP8 (11727945_x_at) / Fold change /veh ARHGAP8 /// PRR5-ARHGAP8 (11727945_x_at) / RFU KRTAP5-7 /// NADSYN1 (11734609_at) / Fold change /veh KRTAP5-7 /// NADSYN1 (11734609_at) / RFU RASL12 (11751679_a_at) / Fold change /veh RASL12 (11751679_a_at) / RFU CDKN2B (11736163_a_at) / Fold change /veh CDKN2B (11736163_a_at) / RFU PRF1 (11729649_at) / Fold change /veh PRF1 (11729649_at) / RFU, ZNF638 /// ZNF638-IT1 / Fold change vs veh, ZNF638 /// ZNF638-IT1 / RFU, PANK3 / Fold change vs veh, PANK3 / RFU, SH3YL1 / Fold change vs veh, SH3YL1 / RFU, ZEB2 / Fold change vs veh, ZEB2 / RFU, NRIP1 / Fold change vs veh, NRIP1 / RFU, PTTG1IP / Fold change vs veh, PTTG1IP / RFU, CAPN2 / Fold change vs veh, CAPN2 / RFU, MED14 / Fold change vs veh, MED14 / RFU, SNORA58 / Fold change vs veh, SNORA58 / RFU, C1orf63 / Fold change vs veh, C1orf63 / RFU, LRRFIP1 / Fold change vs veh, LRRFIP1 / RFU, NDUFAF7 / Fold change vs veh, NDUFAF7 / RFU, SLC12A2 / Fold change vs veh, SLC12A2 / RFU, IBTK / Fold change vs veh, IBTK / RFU, ESF1 / Fold change vs veh, ESF1 / Fold change vs veh, TMEM50B / RFU, TAOK1 / Fold change vs veh, TAOK1 / RFU, ACBD3 / Fold change vs veh, ACBD3 / RFU, TMA16 / Fold change vs veh, TMA16 / RFU, RWDD3 / Fold change vs veh, RWDD3 / RFU, BCAT1 / Fold change vs veh, BCAT1 / RFU, EDEM3 / Fold change vs veh, EDEM3 / RFU, TMEM33 / Fold change vs veh, TMEM33 / RFU, WDR75 / Fold change vs veh, WDR75 / RFU, AHCTF1 / Fold change vs veh, AHCTF1 / RFU, TFRC / Fold change vs veh, TFRC / RFU, ZDHHC17 / Fold change vs veh, ZDHHC17 / RFU, NOM1 / Fold change vs veh, NOM1 / RFU, ARL8B / Fold change vs veh, ARL8B / RFU, ZBTB11 / Fold change vs veh, ZBTB11 / RFU, TAMM41 / Fold change vs veh, TAMM41 / RFU, KIAA1704 /// LOC100996395 / Fold change vs veh, KIAA1704 /// LOC100996395 / RFU, ING1 / Fold change vs veh, ING1 / RFU, TRMT61B / Fold change vs veh, TRMT61B / RFU, FUBP3 / Fold change vs veh, FUBP3 / RFU, TP53 / Fold change vs veh, TP53 / RFU, TNKS2 / Fold change vs veh, TNKS2 / RFU, ZFP14 / Fold change vs veh, ZFP14 / RFU, ACTR2 / Fold change vs veh, ACTR2 / RFU, PPP3R1 / Fold change vs veh, PPP3R1 / RFU, PIK3R1 / Fold change vs veh, PIK3R1 / RFU, HNRNPA1 / Fold change vs veh, HNRNPA1 / RFU, RNF170 / Fold change vs veh, RNF170 / RFU, ZNF28 / Fold change vs veh, ZNF28 / RFU, RNGTT / Fold change vs veh, RNGTT / RFU, OGT / Fold change vs veh, OGT / RFU, BRD1 / Fold change vs veh, BRD1 / RFU, MARS / Fold change vs veh, MARS / RFU, ZNF655 / Fold change vs veh, ZNF655 / RFU, FAHD1 / Fold change vs veh, FAHD1 / RFU, BDP1 / Fold change vs veh, BDP1 / RFU, LRRCC1 / Fold change vs veh, LRRCC1 / RFU, ARID1A / Fold change vs veh, ARID1A / RFU, ZNF146 / Fold change vs veh, ZNF146 / RFU, ZNF330 / Fold change vs veh, ZNF330 / RFU, GPN3 / Fold change vs veh, GPN3 / RFU, C9orf123 / Fold change vs veh, C9orf123 / RFU, N4BP2L2 / Fold change vs veh, N4BP2L2 / RFU, ARFIP1 / Fold change vs veh, ARFIP1 / RFU, FAM179B / Fold change vs veh, FAM179B / RFU, BCL10 / Fold change vs veh, BCL10 / RFU, UHRF1BP1L / Fold change vs veh, UHRF1BP1L / RFU, BET1 / Fold change vs veh, BET1 / RFU, CNOT2 / Fold change vs veh, CNOT2 / RFU, ZNF268 / Fold change vs veh, ZNF268 / Fold change vs veh, ZNF507 / RFU, DGCR2 / Fold change vs veh, DGCR2 / RFU, WDSUB1 / Fold change vs veh, WDSUB1 / Fold change vs veh, HSP90B1 /// MIR3652 / RFU, ADSS / Fold change vs veh, ADSS / RFU, GK / Fold change vs veh, GK / RFU, ZNF148 / Fold change vs veh, ZNF148 / RFU, TAF9 / Fold change vs veh, TAF9 / RFU, SLC1A5 / Fold change vs veh, SLC1A5 / RFU, SLMO2 / Fold change vs veh, SLMO2 / RFU, ABCC4 / Fold change vs veh, ABCC4 / RFU, LOC101060439 /// RAP1B / Fold change vs veh, LOC101060439 /// RAP1B / RFU, RFX7 / Fold change vs veh, RFX7 / RFU, GTPBP10 / Fold change vs veh, GTPBP10 / RFU, CNEP1R1 / Fold change vs veh, CNEP1R1 / RFU, BIVM-ERCC5 /// ERCC5 / Fold change vs veh, BIVM-ERCC5 /// ERCC5 / RFU, ILF3 / Fold change vs veh, ILF3 / RFU 11762660_at / Fold change /veh 11762660_at / RFU VCAN (11757783_s_at) / Fold change /veh VCAN (11757783_s_at) / RFU DDX43 (11728927_at) / Fold change /veh DDX43 (11728927_at) / RFU KRT8 (11758188_x_at) / Fold change /veh KRT8 (11758188_x_at) / RFU NKD1 (11759106_at) / Fold change /veh NKD1 (11759106_at) / RFU SRD5A1 (11742802_a_at) / Fold change /veh SRD5A1 (11742802_a_at) / RFU TPSAB1 /// TPSB2 (11721975_s_at) / Fold change /veh TPSAB1 /// TPSB2 (11721975_s_at) / RFU GSTM3 (11746129_a_at) / Fold change /veh GSTM3 (11746129_a_at) / RFU IL23R (11737362_x_at) / Fold change /veh IL23R (11737362_x_at) / RFU TMEM51 (11727254_a_at) / Fold change /veh TMEM51 (11727254_a_at) / RFU PIWIL2 (11732686_x_at) / Fold change /veh PIWIL2 (11732686_x_at) / RFU ORM1 (11744905_x_at) / Fold change /veh ORM1 (11744905_x_at) / RFU CCDC152 (11743942_at) / Fold change /veh CCDC152 (11743942_at) / RFU ECM1 (11717891_a_at) / Fold change /veh ECM1 (11717891_a_at) / RFU IL23R (11748794_a_at) / Fold change /veh IL23R (11748794_a_at) / RFU TNFAIP8L3 (11732012_x_at) / Fold change /veh TNFAIP8L3 (11732012_x_at) / RFU MBOAT4 (11741988_at) / Fold change /veh MBOAT4 (11741988_at) / RFU 11764193_at / Fold change /veh 11764193_at / RFU TMEM53 (11763286_at) / Fold change /veh TMEM53 (11763286_at) / RFU MAGEB2 (11727129_at) / Fold change /veh MAGEB2 (11727129_at) / RFU TMEM200A (11744735_a_at) / Fold change /veh TMEM200A (11744735_a_at) / RFU CCDC152 (11751479_a_at) / Fold change /veh CCDC152 (11751479_a_at) / RFU FAM211A (11726209_a_at) / Fold change /veh FAM211A (11726209_a_at) / RFU RGS16 (11746705_a_at) / Fold change /veh RGS16 (11746705_a_at) / RFU VCAN (11755009_s_at) / Fold change /veh VCAN (11755009_s_at) / RFU RHOB (11743442_s_at) / Fold change /veh RHOB (11743442_s_at) / RFU RGS16 (11720943_a_at) / Fold change /veh RGS16 (11720943_a_at) / RFU RGS16 (11720944_at) / Fold change /veh RGS16 (11720944_at) / RFU, VPS4B / Fold change vs veh, VPS4B / RFU, CREB1 / Fold change vs veh, CREB1 / RFU, DNAJC13 / Fold change vs veh, DNAJC13 / RFU, GNAQ / Fold change vs veh, GNAQ / RFU, CDK5R1 / Fold change vs veh, CDK5R1 / RFU, ZRANB3 / Fold change vs veh, ZRANB3 / RFU, CUL4A / Fold change vs veh, CUL4A / RFU, CCNY / Fold change vs veh, CCNY / RFU, UFL1 / Fold change vs veh, UFL1 / RFU, COG3 / Fold change vs veh, COG3 / RFU, DIAPH2 / Fold change vs veh, DIAPH2 / RFU, SKA2 / Fold change vs veh, SKA2 / RFU, AFF3 / Fold change vs veh, AFF3 / RFU, LMF1 / Fold change vs veh, LMF1 / RFU, IPO11 / Fold change vs veh, IPO11 / RFU, DFFB / Fold change vs veh, DFFB / RFU, FOXP1 / Fold change vs veh, FOXP1 / RFU, CARD8 / Fold change vs veh, CARD8 / RFU, STRN3 / Fold change vs veh, STRN3 / RFU, ADK / Fold change vs veh, ADK / RFU, RASSF2 / Fold change vs veh, RASSF2 / RFU, WIPF1 / Fold change vs veh, WIPF1 / RFU, LARP1B / Fold change vs veh, LARP1B / RFU, RASA1 / Fold change vs veh, RASA1 / RFU, RB1 / Fold change vs veh, RB1 / RFU, PPFIA1 / Fold change vs veh, PPFIA1 / RFU, MAT2A / Fold change vs veh, MAT2A / RFU, CCT5 / Fold change vs veh, CCT5 / RFU, WDR92 / Fold change vs veh, WDR92 / RFU, CUX1 / Fold change vs veh, CUX1 / RFU, TTC7A / Fold change vs veh, TTC7A / RFU, TMEM135 / Fold change vs veh, TMEM135 / RFU, DEPTOR / Fold change vs veh, DEPTOR / RFU, CPM / Fold change vs veh, CPM / RFU, DNAJB6 / Fold change vs veh, DNAJB6 / RFU, CACNA2D3 / Fold change vs veh, CACNA2D3 / RFU, DTX4 / Fold change vs veh, DTX4 / RFU, TFCP2 / Fold change vs veh, TFCP2 / RFU, GMCL1 /// GMCL1P1 / Fold change vs veh, GMCL1 /// GMCL1P1 / RFU, AEBP2 / Fold change vs veh, AEBP2 / RFU, SNHG1 /// SNORD22 /// SNORD25 /// SNORD26 /// SNORD27 /// SNORD28 /// SNORD29 /// SNORD31 / Fold change vs veh, SNHG1 /// SNORD22 /// SNORD25 /// SNORD26 /// SNORD27 /// SNORD28 /// SNORD29 /// SNORD31 / Fold change (Aza/veh), C12orf56 (ProbeSet 11735607_a_at) / Fold change (ACY-1035/veh), C12orf56 (ProbeSet 11735607_a_at) / Fold change (Aza/veh), FGFR1OP (ProbeSet 11751329_s_at) / Fold change (ACY-1035/veh), FGFR1OP (ProbeSet 11751329_s_at) / Fold change (Aza/veh), VPS36 (ProbeSet 11739960_a_at) / Fold change (ACY-1035/veh), VPS36 (ProbeSet 11739960_a_at) / RFU SYPL1 (11715823_x_at) / Fold change /veh SYPL1 (11715823_x_at) / RFU IGFBP7 (11715501_s_at) / Fold change /veh IGFBP7 (11715501_s_at) / RFU REEP3 (11722064_at) / Fold change /veh REEP3 (11722064_at) / RFU IGLL1 (11728026_x_at) / Fold change /veh IGLL1 (11728026_x_at): dose or concentration left out as unconfirmed
Conditions: ProbeSet 11728879_at; LIST B

## Nc1ccc(-c2cccs2)cc1NC(=O)c1ccc2c(c1)cc(C1CC1)n2CCN1CCOCC1 [ACY-1035]
  RFU, PPP3R1: 371.71 RFU
